Reference: BindingDB's records for doi:10.1021/jm9700171 (Washington University, 1998)

Molecular target: Substance-P receptor (Bos taurus)
Test: Binding affinity was measured against the Tachykinin receptor 1 in bovine retina using [3H]SP

Row | IC50 [nM] | SMILES
1 | 25.7 | Cc1cc(C)cc(C(=O)N[C@H]2CCN(C(=O)c3cc(Cl)cc(Cl)c3)[C@H](Cc3ccccc3)C2)c1
2 | 15.1 | Cc1cc(C)cc(C(=O)N2CC[C@H](NCCc3ccccc3)C[C@H]2Cc2ccccc2)c1 [CGP-47899]
